Patent US7396836B2, “Pyrimidine compound and medicinal composition thereof” (Eisai R&D Management Co., Ltd., priority 2001, dated 2008)

Experiments:
SD IGS rats = experiment: Evaluation of defecation-promoting action; assay type: in vivo, rat; conditions: 3 mg/kg oral, 90 minutes after administration, per cage (3 animals/cage)
Excerpt: Evaluation of Defecation-Promoting Action
The defecation-promoting action of the adenosine A2B receptor-inhibiting compound which was identified by measuring the binding affinity or antagonistic activity thereof to the adenosine receptor in Test Examples 1 to 3, a salt thereof, a solvate of them, or a pharmaceutical composition containing it can be evaluated on the basis of the following method. That is, SD IGS rats (6 weeks-old, from Charles River) were placed in cages (3 animals/cage) and preliminarily allowed food and water ad libitum and raised for 1 week. Then, a tared water-absorbing sheet was placed below each cage, and the animals were fasted but allowed water ad libitum throughout the experiment. After 1.5 hours, the fecal pellets were collected from each cage and observed for abnormality before the experiment. The compound suspended or dissolved in 0.5% (w/v) methyl cellulose (MC) was orally administered in a volume of 5 ml/kg. On one hand, 0.5% (w/v) MC only was orally given to the control group. After administration of the compound, the rats were returned to the cage provided with a new water-absorbing sheet, and 90 minutes after the administration, the fecal pellets on the water-absorbing sheet were collected from each cage, and the external appearance was observed, and then counted and weighed. The number of fecal pellets is expressed per each cage.

[1] = system: haloperidol-induced catalepsy; experiment: Evaluation of effects on haloperidol-induced catalepsy; assay type: in vivo, mouse; conditions: ICR mice, haloperidol 1 mg/kg i.p., 1 hour after administration, score 0-5
Excerpt: Evaluation of Effects on Haloperidol-induced Catalepsy Parkinson's disease is a disease caused by the degeneration or cell death of nigrostriatal dopaminergic neurons. The administration of haloperidol (dopamine D1/D2 receptor antagonist) blocks postsynaptic D2 receptors to induce catalepsy. The haloperidol-induced catalepsy has been known as a classic model that mimics Parkinson's disease by drug administration (Eur. J. Pharmacol., 182, 327-334(1990)). The adenosine A2A receptor antagonist compounds identified by measuring on their binding abilities to the receptors in Test Examples 1 to 3, the salts thereof, solvates of them, or pharmaceutical compositions containing those were evaluated for effect on haloperidol-induced catalepsy by the method described below. That is, the experiment was conducted by eight 5-week-old male ICR mice (available from Charles River) per group. Haloperidol (manufactured by Sigma Co., Ltd.) was dissolved in a 6.1% tartaric acid solution and the resulting solution in a dose of 1 mg/kg was then intraperitoneally administered to the mice. The test compound was used as a 0.5% MC suspension. 1.5 hours after the intraperitoneal administration of haloperidol, each of the suspension with the test compound and the suspension without the test compound (control) was orally administered to the mice (0.1 ml per 10 g of mouse body weight). 1 hour after the administration of the test compound, the degree of catalepsy was measured with respect to each of the mice such that a pair of only forelimbs and a pair of only hindlimbs of each mouse were placed by turns on a stand 4.5 cm in height and 10 cm in width. […] Catalepsy scores and criterions are as follows. […] The effects of the compound were determined by making a comparison between the score of the control group and the score of the test group in which the test compound was administered. A significant difference was analyzed by Dunnett's-test.

adenosine A2A receptor = target: T1, adenosine A2A receptor (Homo sapiens, UniProt P29274); experiment: Binding ability to adenosine A2A receptor (3H-CGS21680 displacement); conditions: A2A receptor membrane sample, Cheng-Prusoff
T1 construct: purchased Receptor Biology Inc
T1 sequence (P29274 whole entry): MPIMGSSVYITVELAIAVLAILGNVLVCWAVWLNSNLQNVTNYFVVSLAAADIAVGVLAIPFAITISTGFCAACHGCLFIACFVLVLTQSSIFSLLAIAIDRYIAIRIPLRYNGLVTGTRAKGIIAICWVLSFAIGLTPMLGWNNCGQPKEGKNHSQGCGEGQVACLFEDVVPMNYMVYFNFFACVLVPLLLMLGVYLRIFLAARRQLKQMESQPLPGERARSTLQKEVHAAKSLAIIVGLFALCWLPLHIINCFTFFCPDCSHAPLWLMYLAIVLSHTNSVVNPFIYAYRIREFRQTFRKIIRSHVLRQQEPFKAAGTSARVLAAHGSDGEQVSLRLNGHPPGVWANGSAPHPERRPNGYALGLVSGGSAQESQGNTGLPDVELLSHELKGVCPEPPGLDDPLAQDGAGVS
Experimental: Measurement of the Binding Ability to Adenosine A2A Receptor
An experiment of inhibition of binding to adenosine A2A receptor was conducted using a membrane sample (Receptor Biology Inc.) where an adenosine A2A receptor cDNA was expressed in excess. This membrane sample was suspended at a protein concentration of 22.2 μg/ml in 20 mM HEPES buffer, pH 7.4 (10 mM MgCl2 and 100 mM NaCl). To 0.45 ml of this membrane sample suspension were added 0.025 ml of 500 nM tritium-labeled 2-p-[2-carboxyethyl]phenetylamino-5′-N-ethylarboxyamide adenosine (^3H-CGS21680, from NEN) and 0.025 ml of test compound. This mixture was left at 25° C. for 90 minutes, filtered rapidly under suction through a glass fiber filter (GF/B, from Whatman), and immediately washed twice with 5 ml of 50 mM ice-cooled Tris-HCl buffer. Thereafter, the glass fiber filter was transferred to a vial, scintillator was added thereto, and the radioactivity on the filter was measured by a liquid scintillation counter. The inhibition of binding of ^3H-CGS21680 to A2A receptor by the test compound was determined using the following formula, and from this inhibition, 50% inhibition concentration (IC50) was calculated. Inhibition (%)=[1−{[(binding in the presence of the test compound)−(nonspecific binding)]/[(total binding)−(nonspecific binding)]}]×100
(§1) Here, the total binding means ^3H-CGS21680-bound radioactivity in the absence of the test compound; the nonspecific binding means ^3H-CGS21680-bound radioactivity in the presence of 100 μM RPIA; and the binding in the presence of the test compound means ^3H-CGS21680-bound radioactivity in the presence of the test compound at predetermined concentrations. The inhibition constant (Ki value) in the table was determined from the formula of Cheng-Prusoff.

[2] = target: T2, human adenosine A2B receptor (Homo sapiens, UniProt P29275); experiment: Inhibition of NECA-stimulated production of cAMP in adenosine A2B receptor-expressing CHOK1 cells; assay type: cell-based; conditions: cAMP stimulated by 30 nM NECA
T2 construct: expressed in transfected cells; host or cells: CHOK1 cells
T2 sequence (P29275 1-332): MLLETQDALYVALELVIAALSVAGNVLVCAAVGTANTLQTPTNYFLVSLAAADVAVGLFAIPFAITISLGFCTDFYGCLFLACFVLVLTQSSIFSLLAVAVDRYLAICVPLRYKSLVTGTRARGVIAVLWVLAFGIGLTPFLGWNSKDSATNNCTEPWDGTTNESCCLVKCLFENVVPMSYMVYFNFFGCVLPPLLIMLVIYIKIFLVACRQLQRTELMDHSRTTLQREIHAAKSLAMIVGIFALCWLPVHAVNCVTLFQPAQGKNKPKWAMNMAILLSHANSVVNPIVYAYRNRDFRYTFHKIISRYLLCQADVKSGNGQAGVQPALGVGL
Experimental: Experiment of Inhibition of NECA-stimulated Production of cAMP in Adenosine A2B Receptor-expressing Cells
CHOK1 cells where human adenosine A2B receptor had been expressed in excess were plated onto a 24-well plate at a density of 1.5×10^5 cells/well, cultured overnight, and used in the experiment. The degree of inhibitory effect of the test compound on the amount of cAMP produced by stimulation with 30 nM 5′-N-ethylcarboxyamide adenosine (NECA from Sigma) was evaluated in terms of affinity for A2B receptor. That is, the adhering cells were washed twice with 2 ml/well Krebs-Ringer buffer solution (containing 0.1% BSA; pH 7.4) and pre-incubated for 30 minutes in a volume of 0.5 ml/well. Then, a mixed solution containing NECA and the test compound was added in a volume of 0.1 ml/well in the presence of a phosphodiesterase inhibitor Ro-20-1724 (a product of RBI). After pre-incubation for 15 minutes, the reaction was terminated with 0.1 N HCl in a volume of 300 μl/well. Measurement of intracellular cAMP was carried out using a cAMP enzyme immunoassay kit produced by Amersham. The inhibition of NECA-stimulated production of cAMP by the test compound was determined using the following equation: Inhibition (%)=[1−{(amount of cAMP in the coexistence of NECA and the test compound-amount of cAMP in only the Krebs-Ringer buffer solution)/(amount of cAMP upon stimulation with NECA only-amount of cAMP in only the Krebs-Ringer buffer solution)}]×100

[3] = target: T3, human adenosine A1 receptor (Homo sapiens, UniProt P30542); experiment: Binding affinity to adenosine A1 receptor (3H-CCPA displacement); conditions: membranes of CHOK1 cells expressing human A1 receptor, Cheng-Prusoff
T3 construct: expressed in transfected cells; host or cells: CHOK1 cells (membrane sample)
T3 sequence (P30542 1-326): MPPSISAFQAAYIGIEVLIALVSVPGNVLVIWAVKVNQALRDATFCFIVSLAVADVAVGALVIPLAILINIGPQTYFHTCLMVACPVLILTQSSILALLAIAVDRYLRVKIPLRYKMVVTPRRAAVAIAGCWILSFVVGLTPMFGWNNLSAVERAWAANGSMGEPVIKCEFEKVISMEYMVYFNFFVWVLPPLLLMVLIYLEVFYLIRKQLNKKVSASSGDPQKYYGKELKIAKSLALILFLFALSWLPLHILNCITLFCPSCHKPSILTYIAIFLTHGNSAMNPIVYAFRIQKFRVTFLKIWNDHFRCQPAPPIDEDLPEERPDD
Experimental: Measurement of the binding affinity to adenosine A1 receptor
A human adenosine A1 receptor cDNA was expressed in excess in CHOK1 cells, and this membrane sample was suspended at a protein concentration of 66.7 μg/ml in 20 mM HEPES buffer, pH 7.4 (10 mM MgCl2, 100 mM NaCl). To 0.45 ml of this membrane sample suspension were added 0.025 ml of 60 nM tritium-labeled chlorocyclopentyl adenosine (^3H-CCPA, from NEN Ltd.) and 0.025 ml of test compound. This mixture was left at 30° C. for 120 minutes, filtered rapidly under suction through a glass fiber filter (GF/B, from Whatman), and immediately washed twice with 5 ml of 50 mM water-cooled Tris-HCl buffer. Thereafter, the glass fiber filter was transferred to a vial, scintillator was added thereto, and the radioactivity on the filter was measured by a liquid scintillation counter. The inhibition of binding of ^3H-CCPA to A1 receptor by the test compound was determined using the following formula, and from this value, 50% inhibition concentration (IC50) was calculated. Inhibition (%)=[1-{(binding in the presence of the test compound-nonspecific binding)/(total binding-nonspecific binding)}]×100
as §1, with “In the above formula,” for “Here,”, “^3H-CCPA-bound” for “^3H-CGS21680-bound”, “CPA ([…]);” for “RPIA;”

SMILES | Number of fecal pellets Mean ± S.E. (SD IGS rats) | Catalepsy score (Mean ± S.E.) ([1]; test compound 0.1 mg/kg oral) | Catalepsy score (Mean ± S.E.) ([1]; test compound 1.0 mg/kg oral) | Ki (adenosine A2A receptor) [nM] | IC50 [2] [nM] | Ki [3] [nM]
Cn1cc(-c2cnc(N)nc2-c2ccco2)ccc1=O [Example 16, 5-[2-Amino-4-(2-furyl)-5-pyrimidinyl]-1-methyl-1,2-dihydro-2-pyridinone] | 12.50 ± 0.96 | 4.63 ± 0.38 | 0.88 ± 0.64 | 6 | 29 | 175
CCn1cc(-c2cnc(N)nc2-c2ccco2)ccc1=O [Example 17, 5-[2-Amino-4-(2-furyl)-5-pyrimidinyl]-1-ethyl-1,2-dihydro-2-pyridinone] | 15.50 ± 3.18 | 3.38 ± 0.53 | 1.13 ± 0.67 | 3 | 25 | 289
C=CCn1cc(-c2cnc(N)nc2-c2ccco2)ccc1=O [Example 18, 1-Allyl-5-[2-amino-4-(2-furyl)-5-pyrimidinyl]-1,2-dihydro-2-pyridinone] | 14.50 ± 1.26 |  |  | 2 | 26 | 114
